Results from patent US20240058240A1, “COMPOUNDS AS SELF-TANNING SUBSTANCES AND TANNING COMPOSITIONS THEREOF” (CHEMCOM S.A., priority 2020, published 2024).

Target: T1, OR7C1 (Homo sapiens, UniProt O76099)
T1 construct: transfected with a plasmid containing the CRE-luciferase and a plasmid containing the olfactory receptor; expressed in transfected cells; host or cells: HEK293T-RTP1A1/RTP2 (HEK293T stably expressing the chaperones RTP1A1 and RTP2)
T1 sequence (O76099 1-320): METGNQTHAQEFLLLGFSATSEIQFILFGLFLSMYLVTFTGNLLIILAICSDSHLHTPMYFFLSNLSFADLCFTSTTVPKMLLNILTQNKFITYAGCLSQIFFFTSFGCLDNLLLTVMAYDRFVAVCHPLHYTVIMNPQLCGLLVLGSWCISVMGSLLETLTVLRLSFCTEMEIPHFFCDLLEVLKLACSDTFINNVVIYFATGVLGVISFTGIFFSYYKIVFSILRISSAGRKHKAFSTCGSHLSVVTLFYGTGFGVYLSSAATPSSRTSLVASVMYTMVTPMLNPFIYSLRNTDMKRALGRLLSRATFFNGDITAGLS
Assay: Luciferase-based CRE gene reporter assay, dose-response on OR7C1
Format: cell-based
Details: negative logarithm of the EC50 in Moles; semi-logarithmic dilutions from 1 mM to 316 nM on OR7C1
Experimental: HEK293T-RTP1A1/RTP2 cells were maintained in minimal essential medium (EMEM, Lonza) containing 10% fetal bovine serum (M10). These cells were generated by transfecting HEK293T (Thermofisher Scientific, cat ref: R70007) with an expression vector containing the sequences of the chaperone proteins RTP1A1 and RTP2 and a resistance gene to puromycin, using Lipofectamine 2000. The recombinant cell population, used in these experiments, was selected by adding 10 μg/ml of puromycin into the culture medium and subsequently subcloned (WO 2014/191047 A1).
Potential OR7C1 agonists were diluted at a concentration of 1 mole/liter (M) into an organic solvent such as Dimethyl Sulfoxide (DMSO) or Ethanol to generate stock solutions. […]
For concentration-response analysis, serial dilutions of the tested molecules were prepared from stock solutions in EMEM plated into 96-well plates.
For the dose-response analysis, a Luciferase-based gene reporter assay (Promega, Leiden, the Netherlands) was used. Briefly, cells were platted on poly-D-lysine-coated 96-well plates and transfected with a plasmid containing the CRE-luciferase and a plasmid containing the olfactory receptor. Sixteen hours after transfection, the culture medium was replaced by serum-free EMEM containing the tested compounds at a determined concentration. After four hours of incubation at 37° C., cells were lysed and processed for luminescence measurement. Luminescence emission was recorded. Results were expressed as luciferase activity ([…] (RLU)) or as percentage of the response induced by 10 μM of the adenylate cyclase activator Forskolin. An empty plasmid is used as negative control.
Dose-response analyses using the luciferase-based reporter assay were performed using semi-logarithmic serial dilutions of the compounds, from 1 mM to 316 nM, on OR7C1. 46 compounds were tested in concentration-response analyses. In each experiment, an empty vector (pEFIBRHO) was used as negative control. Values are given as the negative logarithm of the EC50 in Moles.

## Ambermax [Compound 16]
  -LogEC50 (average n > 3): > 8
